Structures are written as SMILES.

This test deals with T1, DNA-PK kinase (Homo sapiens, UniProt P78527).
T1 construct: purchased Promega V4107
In words: Inhibition assay of DNA-PK kinase (Promega kit, ADP-Glo chemiluminescence). In kind it is biochemical. The note with it: 50 µM ATP, 37° C., 60 min; read-out: IC50 (nM), inhibitory activity on DNA-PK kinase. The method, then:
The inhibitory activity of the compounds on DNA-PK kinase was measured by using a DNA-PK kinase assay kit (purchased from Promega, Cat.#: V4107, Lot: 0000366495). The results were quantified by chemiluminescence, and the detailed experimental protocol was as follows: • i. An ADP-fluorescence standard curve over a range of concentrations was plotted according to the kit instructions; • ii. […] The mixtures were mixed well, centrifuged (1000 rpm, 30 s), and incubated at 37° C. for 60 min; • iv. 5 µL of ADP-Glo™ Reagent was added to stop the reaction, which was then mixed well, centrifuged (1000 rpm, 30 s), and incubated at room temperature for 40 min; • v. 10 µL Kinase Detection Reagent was added, and the mixture was mixed well by shaking, centrifuged (1000 rpm, 30 s), and incubated at room temperature for 30 min; • vi. The […] was measured by using a microplate reader (Thermo fisher, Varioskan LUX).
One may read the IC50 as the concentration that inhibits the measured activity by half. On to `Cc1[nH]c(=O)ccc1Nc1ncc2c(n1)n(C1CCOCC1)c(=O)n2C` [Compound 40], for which the IC50 was found to be 39.2 nM. For the compound `Cc1sc(C#N)cc1Nc1ncc2c(n1)n(C1CCOCC1)c(=O)n2C` [Compound 43, 5-Methyl-4-((7-methyl-8-oxo-9-(tetrahydro-2H-pyran-4-yl)-8,9-dihydro-7H-purin-2-yl)amino)thiophene-2-carbonitrile], the IC50 amounted to 9.8 nM.

On to `COC(=O)c1cc(C)c(Nc2ncc3c(n2)n(C2CCOCC2)c(=O)n3C)cc1C#N` [Compound 45], for which the IC50 came out at 13.5 nM.

Turning to `Cc1cc(C(=O)O)c(C#N)cc1Nc1ncc2c(n1)n(C1CCOCC1)c(=O)n2C` [Compound 46, 2-cyano-5-methyl-4-((7-methyl-8-oxo-9-(tetrahydro-2H-pyran-4-yl)-8,9-dihydro-7H-purin-2-yl)amino)benzoic acid], the IC50 is 0.99 nM. As for `Cc1cc(C(N)=O)c(C#N)cc1Nc1ncc2c(n1)n(C1CCOCC1)c(=O)n2C` [Compound 47, 2-cyano-5-methyl-4-((7-methyl-8-oxo-9-(tetrahydro-2H-pyran-4-yl)-8,9-dihydro-7H-purin-2-yl)amino)benzamide], the figure is 3.69 nM; as for `Cc1cc(C(N)=O)c(O)cc1Nc1ncc2c(n1)n(C1CCOCC1)c(=O)n2C` [Compound 50, 2-Hydroxy-5-methyl-4-((7-methyl-8-oxo-9-(tetrahydro-2H-pyran-4-yl)-8,9-dihydro-7H-purin-2-yl)amino)benzamide], 12.7 nM. As for `COC(=O)c1cc(C)c(Nc2ncc3c(n2)n(C2CCOCC2)c(=O)n3C)cc1F` [Compound 51], the figure is 34.1 nM; as for `Cc1cc(=O)[nH]cc1Nc1ncc2c(n1)n(C1CCOCC1)c(=O)n2C` [Compound 55, 7-Methyl-2-((4-methyl-6-oxo-1,6-dihydropyridin-3-yl)amino)-9-(tetrahydro-2H-pyran-4-yl)-7,9-dihydro-8H-purin-8-one], 14.8 nM; as for `Cc1cc(=O)n(C)cc1Nc1ncc2c(n1)n(C1CCOCC1)c(=O)n2C` [Compound 56, 2-((1,4-Dimethyl-6-oxo-1,6-dihydropyridin-3-yl)amino)-7-methyl-9-(tetrahydro-2H-pyran-4-yl)-7,9-dihydro-8H-purin-8-one], 14.3 nM.

Turning to `Cn1c(=O)n(C2CCOCC2)c2nc(Nc3cc(F)c(C(N)=O)cc3Cl)ncc21` [Compound 59, 5-Chloro-2-fluoro-4-((7-methyl-8-oxo-9-(tetrahydro-2H-pyran-4-yl)-8,9-dihydro-7H-purin-2-yl)amino)benzamide], the concentration for half-maximal inhibition (IC50) worked out at 12.1 nM.

For `Cc1cc(C(N)=O)c(F)c(C)c1Nc1ncc2c(n1)n(C1CCOCC1)c(=O)n2C` [Compound 60, 2-Fluoro-3,5-dimethyl-4-((7-methyl-8-oxo-9-(tetrahydro-2H-pyran-4-yl)-8,9-dihydro-7H-purin-2-yl)amino)benzamide], the IC50 turned out to be 29.7 nM. In the case of `Cc1cc(C(N)=O)c(F)cc1Nc1ncc2c(n1)n(C1CCOCC1)c(=O)n2C(C)C` [Compound 63, 2-Fluoro-4-((7-isopropyl-8-oxo-9-(tetrahydro-2H-pyran-4-yl)-8,9-dihydro-7H-purin-2-yl)amino)-5-methylbenzamide] it was 50.5 nM; in that of `Cc1cc(C(N)=O)c(F)cc1Nc1ncc2c(n1)n(C1CCOCC1)c(=O)n2C1CC1` [Compound 64, 4-((7-cyclopropyl-8-oxo-9-(tetrahydro-2H-pyran-4-yl)-8,9-dihydro-7H-purin-2-yl)amino)-2-fluoro-5-methylbenzamide], 3.34 nM; in that of `Cc1cc(C(N)=O)c(F)cc1Nc1ncc2c(n1)n(C1CCC(O)C1)c(=O)n2C` (stereo not shown) [Compound 67, 2-Fluoro-4-((9-(3-hydroxycyclopentyl)-7-methyl-8-oxo-8,9-dihydro-7H-purin-2-yl)amino)-5-methylbenzamide], 2.96 nM. In the case of `Cc1cc(C(N)=O)c(F)cc1Nc1ncc2c(n1)n(C1CCCCC1)c(=O)n2C` [Compound 68, 4-((9-cyclohexyl-7-methyl-8-oxo-8,9-dihydro-7H-purin-2-yl)amino)-2-fluoro-5-methylbenzamide] it was 0.01 nM. As for `CO[C@H]1CC[C@@H](n2c(=O)n(C)c3cnc(Nc4cc(F)c(C(N)=O)cc4C)nc32)CC1` [Compound 70, 2-Fluoro-4-((9-(cis-4-methoxycyclohexyl)-7-methyl-8-oxo-8,9-dihydro-7H-purin-2-yl)amino)-5-methylbenzamide], the IC50 is 4.14 nM. In the case of `CO[C@H]1CC[C@H](n2c(=O)n(C)c3cnc(Nc4cc(F)c(C(N)=O)cc4C)nc32)CC1` [Compound 71, 2-Fluoro-4-((9-(trans-4-methoxycyclohexyl)-7-methyl-8-oxo-8,9-dihydro-7H-purin-2-yl)amino)-5-methylbenzamide] it was 2.17 nM.

Consider `Cc1cc(C(N)=O)c(F)cc1Nc1ncc2c(n1)n(C1C[C@H]3CC(O)C[C@H]3C1)c(=O)n2C` (stereo partly drawn) [Compound 84, 2-Fluoro-4-((9-((3aR,6aS)-5-hydroxyoctahydropentalen-2-yl)-7-methyl-8-oxo-8,9-dihydro-7H-purin-2-yl)amino)-5-methylbenzamide], for which the IC50 was 0.24 nM. In the case of `Cc1cc(C(N)=O)c(F)cc1Nc1ncc2c(n1)n(C1CCC3(CC1)COC3)c(=O)n2C` [Compound 86, 2-Fluoro-5-methyl-4-((7-methyl-8-oxo-9-(2-oxaspiro[3.5]nonan-7-yl)-8,9-dihydro-7H-purin-2-yl)amino)benzamide] it was 0.44 nM.

`Cc1cc(C(N)=O)c(F)cc1Nc1ncc2c(n1)n(C1CC3(COC3)C1)c(=O)n2C` [Compound 89, 2-Fluoro-5-methyl-4-((7-methyl-8-oxo-9-(2-oxaspiro[3.3]heptan-6-yl)-8,9-dihydro-7H-purin-2-yl)amino)benzamide]: the IC50 was 3.83 nM.

On to `Cc1cc(C(N)=O)c(F)cc1Nc1ncc2c(n1)n(C13CCC(C#N)(CC1)CC3)c(=O)n2C` [Compound 90, 4-((9-(4-cyanobicyclo[2.2.2]octan-1-yl)-7-methyl-8-oxo-8,9-dihydro-7H-purin-2-yl)amino)-2-fluoro-5-methylbenzamide], for which the IC50 is 10.8 nM. In the case of `Cc1cc(C(N)=O)c(F)cc1Nc1ncc2c(n1)n(C1CCCC(C)(O)C1)c(=O)n2C` (stereo not shown) [Compound 91, 2-Fluoro-4-((9-(3-hydroxy-3-methylcyclohexyl)-7-methyl-8-oxo-8,9-dihydro-7H-purin-2-yl)amino)-5-methylbenzamide] it was 2.44 nM; in that of `Cc1cc(C(N)=O)c(F)cc1Nc1ncc2c(n1)n(C1CCC(C)(C#N)CC1)c(=O)n2C` (stereo not shown) [Compound 92, 4-((9-(4-cyano-4-methylcyclohexyl)-7-methyl-8-oxo-8,9-dihydro-7H-purin-2-yl)amino)-2-fluoro-5-methylbenzamide], 0.02 nM.

As to `Cc1cc(C(N)=O)c(F)cc1Nc1ncc2c(n1)n([C@H]1C[C@@H](O)C1)c(=O)n2C` [Compound 94, 2-Fluoro-4-((9-(cis-3-hydroxycyclobutyl)-7-methyl-8-oxo-8,9-dihydro-7H-purin-2-yl)amino)-5-methylbenzamide], the IC50 was determined as 7.2 nM. Turning to `Cc1cc(C(N)=O)c(F)cc1Nc1ncc2c(n1)n(C1CCCC(O)C1)c(=O)n2C` (stereo not shown) [Compound 95, 2-Fluoro-4-((9-(-3-hydroxycyclohexyl)-7-methyl-8-oxo-8,9-dihydro-7H-purin-2-yl)amino)-5-methylbenzamide], the half-maximal inhibitory concentration (IC50) turned out to be 0.6 nM.

Source of the values: patent publication US20230165867A1 (CHENGDU BAIYU PHARMACEUTICAL CO., LTD., priority 2020, published 2023).
